Assay results reported in ChEMBL document CHEMBL1145320, “3,4,5-Trisubstituted isoxazoles as novel PPARdelta agonists: Part 1” (Bioorg Med Chem Lett, 2006).

What was measured:
[1] = target: T1, Peroxisome proliferator-activated receptor delta (Homo sapiens, UniProt Q03181)
T1 sequence (Q03181 whole entry): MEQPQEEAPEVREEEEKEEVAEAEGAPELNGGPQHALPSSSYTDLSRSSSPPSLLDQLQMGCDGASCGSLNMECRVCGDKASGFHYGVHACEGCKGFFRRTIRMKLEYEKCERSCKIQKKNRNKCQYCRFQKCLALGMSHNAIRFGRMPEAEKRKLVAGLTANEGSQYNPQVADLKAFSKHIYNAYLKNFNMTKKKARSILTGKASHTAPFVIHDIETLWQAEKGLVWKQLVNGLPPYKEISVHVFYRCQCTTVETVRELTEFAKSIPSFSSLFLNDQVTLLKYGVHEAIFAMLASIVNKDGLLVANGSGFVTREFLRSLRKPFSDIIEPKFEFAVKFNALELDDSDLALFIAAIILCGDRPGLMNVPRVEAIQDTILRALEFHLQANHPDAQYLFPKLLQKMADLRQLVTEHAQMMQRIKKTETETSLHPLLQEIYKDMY
Description: (§1) Agonist activity at PPARdelta by transactivation assay

[2] = target: T2, Peroxisome proliferator-activated receptor gamma (Homo sapiens, UniProt P37231); assay: Agonist activity at PPARgamma by transactivation assay; assay type: functional
T2 sequence (P37231 whole entry): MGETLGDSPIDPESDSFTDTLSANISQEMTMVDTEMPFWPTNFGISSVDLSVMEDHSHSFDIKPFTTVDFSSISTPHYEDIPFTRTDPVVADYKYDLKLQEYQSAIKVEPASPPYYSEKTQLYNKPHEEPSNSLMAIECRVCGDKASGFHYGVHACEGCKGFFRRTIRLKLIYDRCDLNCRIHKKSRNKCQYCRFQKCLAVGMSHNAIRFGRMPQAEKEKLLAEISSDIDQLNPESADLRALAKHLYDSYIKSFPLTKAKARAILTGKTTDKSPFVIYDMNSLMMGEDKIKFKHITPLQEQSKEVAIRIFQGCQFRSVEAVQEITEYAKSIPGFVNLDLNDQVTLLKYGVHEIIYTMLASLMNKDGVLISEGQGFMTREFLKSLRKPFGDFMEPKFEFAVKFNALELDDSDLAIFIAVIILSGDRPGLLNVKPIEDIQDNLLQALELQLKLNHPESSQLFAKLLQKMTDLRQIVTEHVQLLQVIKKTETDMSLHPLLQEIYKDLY

[3] = target: T3, Peroxisome proliferator-activated receptor alpha (Homo sapiens, UniProt Q07869); assay: Agonist activity at PPARalpha by transactivation assay; assay type: functional
T3 sequence (Q07869 whole entry): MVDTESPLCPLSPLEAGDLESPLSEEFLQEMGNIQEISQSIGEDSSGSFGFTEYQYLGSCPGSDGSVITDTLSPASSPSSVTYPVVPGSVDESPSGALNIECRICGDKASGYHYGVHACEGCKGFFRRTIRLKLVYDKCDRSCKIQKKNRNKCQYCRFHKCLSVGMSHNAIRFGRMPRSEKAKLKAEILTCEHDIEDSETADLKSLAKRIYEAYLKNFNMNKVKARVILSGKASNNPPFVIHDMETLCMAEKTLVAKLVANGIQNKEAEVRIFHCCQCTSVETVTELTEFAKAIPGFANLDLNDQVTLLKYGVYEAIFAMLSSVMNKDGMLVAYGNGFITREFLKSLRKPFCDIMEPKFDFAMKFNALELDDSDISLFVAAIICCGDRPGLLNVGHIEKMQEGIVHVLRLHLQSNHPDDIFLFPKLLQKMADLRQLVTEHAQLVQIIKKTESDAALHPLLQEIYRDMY

[4] = target: T1, Peroxisome proliferator-activated receptor delta; remark: listed apart in the source
Description: as §1

Row | Compound | EC50 [1] [nM] | EC50 ([2]; read-out: EC50) [µM] | EC50 ([3]; read-out: EC50) [µM] | EC50 [4] | EC50 [2] | EC50 [3]
1 | Cc1onc(-c2ccc(CC(=O)O)cc2Cl)c1C(=O)NCCOc1ccc(C(F)(F)F)cc1 | > 10000 | > 10 | > 10 | – | – | –
2 | CN(CCOc1ccc(Cl)cc1Cl)C(=O)c1c(-c2ccc(CC(=O)O)cc2Cl)noc1-c1ccccc1 | 3670 | > 10 | > 10 | – | – | –
3 | O=C(O)Cc1ccc(-c2noc(-c3ccccc3)c2C(=O)NCCOc2ccc(Cl)cc2Cl)c(Cl)c1 | 80 | > 10 | > 10 | – | – | –
4 | Cc1cc(SCc2cc(-c3c(Cl)cccc3Cl)no2)ccc1OCC(=O)O | – | – | – | Not Active | Not Active | Not Active
5 | O=C(O)Cc1ccc(-c2noc(C(=O)CCCOc3ccc(Cl)cc3Cl)c2-c2ccccc2)c(Cl)c1 | – | – | – | Not Active | Not Active | Not Active
6 | O=C(O)Cc1ccc(-c2noc(-c3ccco3)c2C(=O)NCCOc2ccc(Cl)cc2Cl)c(Cl)c1 | 10 | > 10 | > 10 | – | – | –
7 | CC(C)(C)c1onc(-c2ccc(CC(=O)O)cc2Cl)c1C(=O)NCCOc1ccc(Cl)cc1Cl | 2590 | > 10 | > 10 | – | – | –
8 | O=C(O)Cc1ccc(-c2noc(C3CC3)c2C(=O)NCCOc2ccc(Cl)cc2Cl)c(Cl)c1 | 30 | 3.23 | 1.67 | – | – | –
9 | Cc1onc(-c2ccc(CC(=O)O)cc2Cl)c1COCCOc1ccc(C(F)(F)F)cc1[N+](=O)[O-] | 130 | > 10 | 0.22 | – | – | –
10 | Cc1onc(-c2ccc(CC(=O)O)cc2Cl)c1C(=O)NCCOc1ccc(C(F)(F)F)cc1[N+](=O)[O-] | 4 | 1.25 | 0.34 | – | – | –
11 | O=C(O)Cc1ccc(-c2noc(-c3ccccc3)c2C(=O)CCCOc2ccc(Cl)cc2Cl)c(Cl)c1 | 30 | > 10 | > 10 | – | – | –
12 | Cc1onc(-c2ccc(CC(=O)O)cc2Cl)c1C(=O)NCCOc1ccc(C(F)(F)F)cc1C(F)(F)F | 260 | > 10 | > 10 | – | – | –
13 | CC(C)c1onc(-c2ccc(CC(=O)O)cc2Cl)c1C(=O)NCCOc1ccc(Cl)cc1Cl | 90 | > 10 | 7.11 | – | – | –
14 | Cc1onc(-c2ccc(CC(=O)O)cc2Cl)c1C(=O)NCCOc1ccc(Cl)cc1Cl | 310 | > 10 | > 10 | – | – | –
15 | Cc1onc(-c2ccc(CC(=O)O)cc2Cl)c1C(=O)NCCOc1ccccc1[N+](=O)[O-] | > 10000 | > 10 | > 10 | – | – | –
16 | CCc1onc(-c2ccc(CC(=O)O)cc2Cl)c1C(=O)NCCOc1ccc(Cl)cc1Cl | 110 | > 10 | > 10 | – | – | –
17 | O=C(O)Cc1ccc(-c2noc(-c3ccccc3)c2COCCOc2ccc(Cl)cc2Cl)c(Cl)c1 | 190 | > 10 | > 10 | – | – | –
18 | Cc1onc(-c2c(Cl)cccc2Cl)c1C(=O)OCCOc1ccc(C(F)(F)F)cc1[N+](=O)[O-] | 230 | > 10 | > 10 | – | – | –
